Data taken from paper PMC8170132, “Kinetics of Abacavir-Induced Remodelling of the Major Histocompatibility Complex Class I Peptide Repertoire” (Frontiers in Immunology, 2021).

Key:
[1] = target: T1, HLA-B*57:01fos (Homo sapiens, UniProt P01889, D201E/D98Y/E176V/E187L/E204Q/E69M/E70A/G107R/I90N/K202T/L105A/L119I/N104I/N87E/Q89R/Q94S/R106L/R155S/R180L/R86G/S101N/S121V/S35A/S48A/T118I/V36M/Y140S/Y91M); assay: Fluorescence polarisation association rate measurements; type: binding; conditions: 25°C; for Effect of tapasin on binding of fluorescent peptide to HLA-B*57:01fos: tapasin-jun or tapasin-jun ERp57 C60A conjugate; for Effect of abacavir on binding of fluorescent peptide to HLA-B*57:01fos: 60 µM abacavir
T1 construct: Fos leucine zipper (C); made in house
Procedure: (§1) Peptide loaded HLA-B*57:01fos complexes were obtained as described ([50]) by refolding solubilised inclusion bodies of HLA-B*57:01fos heavy chains with human β 2m and UV-labile HLA-B57-conditional peptide ligand.
(§2) Fluorescence polarisation measurements were taken using a SpectraMax i3x Multi-Mode Microplate Reader (Molecular Devices) with rhodamine detection cartridge. All experiments were conducted at 25°C and used PBS supplemented with 0.5 mg/ml bovine-gamma-globulin (Sigma), and a 20 fold molar excess of human β 2m (Fitzgerald) in a volume of 60 µl. Binding of TAMRA-labelled peptides is reported in millipolarisation units (mP) and is obtained from the equation mP = 1,000 × (S – G × P)/(S + G × P), where S and P are background subtracted fluorescence count rates (S = polarisation emission filter is parallel to the excitation filter; P = polarisation emission filter is perpendicular to the excitation filter) and G (grating) is an instrument and assay dependent factor.
Peptide-receptive HLA-B*57:01fos were obtained by exposing HLA-B*57:01fos complexes loaded with UV labile conditional peptide ligand to ~360 nm light for 20 min at 4°C (“UV exposed” hereafter). The binding of fluorescent peptides to UV exposed HLA-B*57:01fos was monitored in the absence or presence of excess (60 µM) abacavir or tapasin-jun or tapasin-jun ERp57 C60A conjugate. […] Most experiments used 0.55 µM HLA-B*57:01fos molecules, but a minority of experiments involved different preparations of HLA-B*57:01fos which required higher concentrations of HLA-B*57:01fos, up to a maximum of 3.18 µM HLA-B*57:01fos, to achieve equivalent polarisation levels.

[2] = target: T1, HLA-B*57:01fos; assay: Fluorescence polarisation dissociation rate measurements; type: binding; conditions: for Effect of abacavir on dissociation of the peptide from HLA-B*57:01fos: 60 µM abacavir with competing peptide; for Half life (hours) of dissociation from HLA-B*57:01fos, Comp+Abacavir / Half life (hours) of dissociation from HLA-B*57:01fos, Comp+Tapasin / Half life (hours) of dissociation from HLA-B*57:01fos, Comp+Tapasin+Abacavir: as Comp; for Half life (hours) of dissociation from HLA-B*57:01fos, Comp+Abacavir: plus 60 µM abacavir; for Half life (hours) of dissociation from HLA-B*57:01fos, Comp+Abacavir / Half life (hours) of dissociation from HLA-B*57:01fos, Comp+Tapasin / Half life (hours) of dissociation from HLA-B*57:01fos, Comp+Tapasin+Abacavir / Half life (hours) of dissociation from HLA-B*57:01fos, Comp: fluorescence polarisation, 25°C, one-phase decay, plateau 50 mP (unconstrained for RVD), 3-4 replicates; for Half life (hours) of dissociation from HLA-B*57:01fos, Comp+Tapasin: plus conjugated tapasin-jun-ERp57 C60A (mostly 0.254 µM); for Half life (hours) of dissociation from HLA-B*57:01fos, Comp+Tapasin+Abacavir: plus tapasin-jun-ERp57 C60A and 60 µM abacavir; for Half life (hours) of dissociation from HLA-B*57:01fos, Comp: PBS + 0.5 mg/ml bovine-gamma-globulin, 20 fold excess human β2m, excess unlabelled competing peptide only
Procedure: as §1, §2
HLA-B*57:01fos molecules were UV exposed and then allowed to bind fluorescent peptides overnight at room temperature. Florescence polarisation measurements were taken after the addition of excess non-labelled competitor peptide (otherwise identical to the labelled peptide) in the absence or presence of 60 µM abacavir or conjugated tapasin-jun-ERp57 C60A proteins. […] Most experiments used 0.55 µM HLA-B*57:01fos molecules, but some experiments involved different preparations of HLA-B*57:01fos which required higher concentrations of HLA-B*57:01fos, up to a maximum of 1.38 µM HLA-B*57:01fos, to achieve equivalent polarisation levels.
Supplementary Table 2. Dissociation rates of TAMRA-labelled peptides from HLA-B*57:01fos molecules. The rates at which the indicated peptides dissociated from HLA-B*57:01fos molecules in the presence of excess unlabelled competing peptide (“Comp”), abacavir and tapasin (data shown in figure 7) was measured by Graphpad Prism v9.1.0. The dissociation rates were calculated by performing non-linear regression, using the one-phase decay method, with plateaus constrained to be equal to 50 mP (apart from being unconstrained for RVD peptide). The number of experimental replicates, and the standard deviation in the measured dissociation rates across the replicates is also presented.

[3] = target: T2, HLA-B*57:01 (Homo sapiens, UniProt P01889, D201E/D98Y/E176V/E187L/E204Q/E69M/E70A/G107R/I90N/K202T/L105A/L119I/N104I/N87E/Q89R/Q94S/R106L/R155S/R180L/R86G/S101N/S121V/S35A/S48A/T118I/V36M/Y140S/Y91M); assay: LC-MRM-MS quantitation of HLA ligands and co-purified abacavir from abacavir treated C1R.B*57:01 cells; type: cell-based; conditions: for Category of abacavir impact on peptide abundance in the immunopeptidome: C1R.B*57:01, 35 µM abacavir 0-16 h or constant, linear regression of normalised abundance, three replicates; for Abacavir dependence: LC-MRM-MS detection, classification of the peptide based on abacavir dependency; for Linear regression slope: linear regression of LC-MRM-MS peptide abundance over abacavir treatment time
[4] = target: T2, HLA-B*57:01; parameters: method as in Illing et al., Nature 2012; conditions: ref Illing et al., Nature 2012, cited from earlier work; for HLA-B*57:01 previous observation by LC-MS/MS, Abacavir treated: abacavir treated cells; for HLA-B*57:01 previous observation by LC-MS/MS, Untreated: untreated cells

Row | Substance | Effect of abacavir on binding of fluorescent peptide to HLA-B*57:01fos ([1]; fluorescence polarisation) | Category of abacavir impact on peptide abundance in the immunopeptidome [3] | Abacavir dependence [3] | Linear regression slope [3] | HLA-B*57:01 previous observation by LC-MS/MS, Abacavir treated [4] | HLA-B*57:01 previous observation by LC-MS/MS, Untreated [4] | also measured
1 | LTTK*LTNTNI | – | – | – | – | – | – | Effect of tapasin on binding of fluorescent peptide to HLA-B*57:01fos ([1]; fluorescence polarisation): did not affect the binding
2 | RVDPAK*GLFYF | enhanced by abacavir during the first hour | – | – | – | – | – | Effect of combined abacavir and tapasin on binding of fluorescent peptide to HLA-B*57:01fos ([1]; 60 µM abacavir + tapasin-jun, fluorescence polarisation): tapasin partially mitigated this effect; Intrinsic binding of fluorescent peptide to UV exposed HLA-B*57:01fos ([1]; peptide alone, fluorescence polarisation (mP)): poor binding; Effect of abacavir on dissociation of the peptide from HLA-B*57:01fos [2]: modestly enhanced; Half life (hours) of dissociation from HLA-B*57:01fos, Comp+Abacavir [2]: 0.26 h; Half life (hours) of dissociation from HLA-B*57:01fos, Comp+Tapasin [2]: 0.35 h; Half life (hours) of dissociation from HLA-B*57:01fos, Comp+Tapasin+Abacavir [2]: 0.26 h; Rate of dissociation from HLA-B*57:01fos (in words) ([2]; competing peptide only): minutes; Half life (hours) of dissociation from HLA-B*57:01fos, Comp [2]: 0.31 h
3 | ATFK*GIVRAI | less pronounced | – | – | – | – | – | Effect of tapasin on binding of fluorescent peptide to HLA-B*57:01fos ([1]; fluorescence polarisation): only slightly enhanced binding; Effect of abacavir on dissociation of the peptide from HLA-B*57:01fos [2]: pronounced decrease in the dissociation; Half life (hours) of dissociation from HLA-B*57:01fos, Comp+Abacavir [2]: 71.63 h; Half life (hours) of dissociation from HLA-B*57:01fos, Comp+Tapasin [2]: 2.04 h; Half life (hours) of dissociation from HLA-B*57:01fos, Comp+Tapasin+Abacavir [2]: 33.59 h; Half life (hours) of dissociation from HLA-B*57:01fos, Comp [2]: 2.34 h
4 | VTKKTYEIW [non-labelled canonical HLA-B*57:01 ligand] | enhanced the binding | Minimal | Minimal | 0.0161 | + (+ (< 5% FDR)) | + (+ (< 5% FDR)) | –
5 | ITTKAISRW [canonical peptide ligand of HLA-B*57:01] | enhanced the binding | – | – | – | – | – | –
6 | KTIKLWNTL [HLA-B*57:01 ligand derived from RACK1] | – | abacavir facilitated (abacavir facilitated (slope > 0.02, abundance > 0 at t = 0 in at least two of three replicates)) | Facilitated | 0.0224 | + (+ (< 5% FDR)) | + (+ (< 5% FDR)) | –
7 | KSYELPDGQVI | – | – | Facilitated | 0.0297 | + (+ (< 5% FDR)) | # (# (> 5% FDR)) | –
8 | TFDDIVHSF | – | – | – | 0.0142 | + (+ (< 5% FDR)) | + (+ (< 5% FDR)) | –
9 | ATFKGIVRAI [non-labelled HLA-B*57:01 ligand] | – | Dependent | Dependent | 0.0504 | + (+ (< 5% FDR)) | – | –
10 | VTYPAKAKGTFI | – | – | Dependent | 0.0340 | + (+ (< 5% FDR)) | – | –
11 | KTAGYPNVNI | – | – | Dependent | 0.0509 | + (+ (< 5% FDR)) | # (# (> 5% FDR)) | –
12 | KTFTTQETI [HLA-B*57:01 ligand] | – | abacavir facilitated (abacavir facilitated (slope > 0.02, abundance > 0 at t = 0 in at least two of three replicates)) | – | – | + (+ (< 5% FDR)) | + (+ (< 5% FDR)) | –
